Assay results published in paper PMC5290327, “SC83288 is a clinical development candidate for the treatment of severe malaria” (Nature Communications, 2017).

Tests used:
Assay in all cases: KINOMEscan
Assay type in all cases: binding
Conditions in all cases: read-out: Remaining enzyme activity
MAP3K3 = molecular target: T1, MAP3K3 (Homo sapiens, UniProt Q99759)
T1 construct: purchased Ambit (DiscoverX) KINOMEscan; Cerep
Outline: (§1)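 Each kinase, tagged with DNA, is partitioned between test compound and an immobilized active-site ligand; qPCR of the eluate reports the bound fraction. SC81458 dosed once, 10 μM final concentration.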

MLK3 = molecular target: T2, MLK3 (Homo sapiens, UniProt Q16584)
T2 construct: purchased Ambit (DiscoverX) KINOMEscan; Cerep
Outline: as §1

EGFR(G719C) = molecular target: T3, EGFR(G719C) (Homo sapiens, UniProt P00533, G719C)
T3 construct: purchased Ambit (DiscoverX) KINOMEscan; Cerep
T3 sequence (P00533 25-1210 G719C): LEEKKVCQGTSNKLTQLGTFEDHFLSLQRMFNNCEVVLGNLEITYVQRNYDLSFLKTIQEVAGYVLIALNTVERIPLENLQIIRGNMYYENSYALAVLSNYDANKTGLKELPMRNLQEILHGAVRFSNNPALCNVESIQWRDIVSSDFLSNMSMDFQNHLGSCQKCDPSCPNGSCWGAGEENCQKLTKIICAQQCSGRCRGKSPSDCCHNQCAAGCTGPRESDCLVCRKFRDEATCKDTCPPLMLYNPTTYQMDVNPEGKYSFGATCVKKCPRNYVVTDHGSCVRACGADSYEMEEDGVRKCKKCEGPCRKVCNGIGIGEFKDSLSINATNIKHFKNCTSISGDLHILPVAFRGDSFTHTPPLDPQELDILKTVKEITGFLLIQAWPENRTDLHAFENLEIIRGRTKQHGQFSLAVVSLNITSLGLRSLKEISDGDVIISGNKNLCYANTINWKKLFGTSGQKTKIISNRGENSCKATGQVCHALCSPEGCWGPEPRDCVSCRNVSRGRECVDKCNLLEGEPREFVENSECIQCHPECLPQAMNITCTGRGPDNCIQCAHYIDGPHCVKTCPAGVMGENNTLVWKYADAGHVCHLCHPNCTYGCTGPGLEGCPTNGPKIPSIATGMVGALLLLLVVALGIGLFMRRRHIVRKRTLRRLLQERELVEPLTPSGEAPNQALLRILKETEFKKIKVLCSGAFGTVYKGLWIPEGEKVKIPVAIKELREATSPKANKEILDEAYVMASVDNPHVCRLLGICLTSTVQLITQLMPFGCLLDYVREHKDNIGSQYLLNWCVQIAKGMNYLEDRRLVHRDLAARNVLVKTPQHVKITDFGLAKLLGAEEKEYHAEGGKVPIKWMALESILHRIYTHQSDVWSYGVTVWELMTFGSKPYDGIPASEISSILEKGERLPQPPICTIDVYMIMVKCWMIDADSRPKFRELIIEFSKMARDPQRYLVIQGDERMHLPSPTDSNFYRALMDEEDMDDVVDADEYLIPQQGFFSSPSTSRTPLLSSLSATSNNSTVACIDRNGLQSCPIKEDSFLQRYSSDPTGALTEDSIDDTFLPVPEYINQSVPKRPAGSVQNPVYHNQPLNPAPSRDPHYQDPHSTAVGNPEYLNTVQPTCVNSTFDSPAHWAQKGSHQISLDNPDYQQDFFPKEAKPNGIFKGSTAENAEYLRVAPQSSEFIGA
Outline: as §1

CSF1R = molecular target: T4, CSF1R (Homo sapiens, UniProt P07333)
T4 construct: purchased Ambit (DiscoverX) KINOMEscan; Cerep
Outline: as §1

FLT3(D835Y) = molecular target: T5, FLT3(D835Y) (Homo sapiens, UniProt P36888, D835Y)
T5 construct: purchased Ambit (DiscoverX) KINOMEscan; Cerep
Outline: as §1

SLK = molecular target: T6, SLK (Homo sapiens, UniProt Q9H2G2)
T6 construct: purchased Ambit (DiscoverX) KINOMEscan; Cerep
Outline: as §1

SgK085 = molecular target: T7, SgK085 (Homo sapiens, UniProt Q86YV6)
T7 construct: purchased Ambit (DiscoverX) KINOMEscan; Cerep
Outline: as §1

PAK2 = molecular target: T8, PAK2 (Homo sapiens, UniProt Q13177)
T8 construct: purchased Ambit (DiscoverX) KINOMEscan; Cerep
T8 sequence (Q13177 whole entry): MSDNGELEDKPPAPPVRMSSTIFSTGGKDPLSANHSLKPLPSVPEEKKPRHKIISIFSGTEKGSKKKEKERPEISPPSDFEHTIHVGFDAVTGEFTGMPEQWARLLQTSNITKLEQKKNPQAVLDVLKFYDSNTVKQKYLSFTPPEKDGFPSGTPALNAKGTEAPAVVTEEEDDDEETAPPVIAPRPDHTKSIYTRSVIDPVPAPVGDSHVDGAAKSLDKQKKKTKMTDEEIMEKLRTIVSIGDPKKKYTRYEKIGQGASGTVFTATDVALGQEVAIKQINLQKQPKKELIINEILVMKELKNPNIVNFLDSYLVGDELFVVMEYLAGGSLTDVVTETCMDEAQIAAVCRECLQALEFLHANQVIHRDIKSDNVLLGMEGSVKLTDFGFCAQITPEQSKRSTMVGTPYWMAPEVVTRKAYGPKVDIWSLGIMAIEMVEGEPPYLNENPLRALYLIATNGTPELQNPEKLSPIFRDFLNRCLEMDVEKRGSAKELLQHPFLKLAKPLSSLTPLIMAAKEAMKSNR
Outline: as §1

PRKG2 = molecular target: T9, PRKG2 (Homo sapiens, UniProt Q13237)
T9 construct: purchased Ambit (DiscoverX) KINOMEscan; Cerep
T9 sequence (Q13237 whole entry): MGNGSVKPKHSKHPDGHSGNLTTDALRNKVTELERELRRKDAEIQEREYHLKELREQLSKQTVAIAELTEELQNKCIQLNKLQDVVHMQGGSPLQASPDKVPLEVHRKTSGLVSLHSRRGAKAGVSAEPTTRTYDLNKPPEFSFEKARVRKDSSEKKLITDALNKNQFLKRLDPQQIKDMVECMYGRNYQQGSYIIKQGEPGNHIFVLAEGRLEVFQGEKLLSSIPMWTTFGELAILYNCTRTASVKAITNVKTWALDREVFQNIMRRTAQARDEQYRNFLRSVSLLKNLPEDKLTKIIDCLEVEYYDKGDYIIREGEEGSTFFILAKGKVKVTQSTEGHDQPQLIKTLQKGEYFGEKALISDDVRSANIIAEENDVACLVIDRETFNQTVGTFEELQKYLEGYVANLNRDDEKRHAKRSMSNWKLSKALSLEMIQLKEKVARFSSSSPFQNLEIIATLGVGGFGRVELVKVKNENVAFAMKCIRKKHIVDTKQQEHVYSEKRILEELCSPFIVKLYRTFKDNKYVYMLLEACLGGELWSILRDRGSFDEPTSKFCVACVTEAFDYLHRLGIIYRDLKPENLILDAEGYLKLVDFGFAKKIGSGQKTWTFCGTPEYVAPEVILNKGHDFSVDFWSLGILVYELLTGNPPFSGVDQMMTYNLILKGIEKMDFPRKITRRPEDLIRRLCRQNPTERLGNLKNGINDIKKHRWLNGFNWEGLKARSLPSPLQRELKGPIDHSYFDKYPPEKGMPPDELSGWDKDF
Outline: as §1

ICK = molecular target: T10, ICK (Homo sapiens, UniProt Q9UPZ9)
T10 construct: purchased Ambit (DiscoverX) KINOMEscan; Cerep
Outline: as §1

DMPK2 = molecular target: T11, DMPK2 (Homo sapiens, UniProt Q6DT37)
T11 construct: purchased Ambit (DiscoverX) KINOMEscan; Cerep
Outline: as §1

ACVR2b = molecular target: T12, ACVR2b (Homo sapiens, UniProt Q13705)
T12 construct: purchased Ambit (DiscoverX) KINOMEscan; Cerep
Outline: as §1

ADCK3 = molecular target: T13, ADCK3 (Homo sapiens, UniProt Q8NI60)
T13 construct: purchased Ambit (DiscoverX) KINOMEscan; Cerep
Outline: as §1

ERN1 = molecular target: T14, ERN1 (Homo sapiens, UniProt O75460)
T14 construct: purchased Ambit (DiscoverX) KINOMEscan; Cerep
Outline: as §1

CSNK1g3 = molecular target: T15, CSNK1g3 (Homo sapiens, UniProt Q9Y6M4)
T15 construct: purchased Ambit (DiscoverX) KINOMEscan; Cerep
Outline: as §1

CSNK1a1l = molecular target: T16, CSNK1a1l (Homo sapiens, UniProt Q8N752)
T16 construct: purchased Ambit (DiscoverX) KINOMEscan; Cerep
T16 sequence (Q8N752 whole entry): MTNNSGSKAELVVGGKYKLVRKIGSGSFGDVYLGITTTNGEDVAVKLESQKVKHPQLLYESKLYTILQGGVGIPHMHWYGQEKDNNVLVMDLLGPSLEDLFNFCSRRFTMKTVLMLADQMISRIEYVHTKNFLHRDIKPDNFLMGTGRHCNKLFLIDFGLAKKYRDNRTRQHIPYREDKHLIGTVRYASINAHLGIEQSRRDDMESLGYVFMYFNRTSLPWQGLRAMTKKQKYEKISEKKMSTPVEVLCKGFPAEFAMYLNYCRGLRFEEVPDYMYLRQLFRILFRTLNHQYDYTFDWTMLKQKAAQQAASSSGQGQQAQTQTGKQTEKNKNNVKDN
Outline: as §1

FGFR3(G697C) = molecular target: T17, FGFR3(G697C) (Homo sapiens, UniProt P22607, G697C)
T17 construct: purchased Ambit (DiscoverX) KINOMEscan; Cerep
Outline: as §1

MAP3K2 = molecular target: T18, MAP3K2 (Homo sapiens, UniProt Q9Y2U5)
T18 construct: purchased Ambit (DiscoverX) KINOMEscan; Cerep
Outline: as §1

MAPKAPK5 = molecular target: T19, MAPKAPK5 (Homo sapiens, UniProt Q8IW41)
T19 construct: purchased Ambit (DiscoverX) KINOMEscan; Cerep
Outline: as §1

MST4 = molecular target: T20, MST4 (Homo sapiens, UniProt Q9P289)
T20 construct: purchased Ambit (DiscoverX) KINOMEscan; Cerep
Outline: as §1

TRKa = molecular target: T21, TRKa (Homo sapiens, UniProt P04629)
T21 construct: purchased Ambit (DiscoverX) KINOMEscan; Cerep
Outline: as §1

GCN2(kin.Dom.2, S808G) = molecular target: T22, GCN2(kin.Dom.2, S808G) (Homo sapiens, UniProt Q9P2K8, S808G)
T22 construct: GCN2(kin.Dom.2, S808G); purchased Ambit (DiscoverX) KINOMEscan; Cerep
Outline: as §1

BMPR1a = molecular target: T23, BMPR1a (Homo sapiens, UniProt P36894)
T23 construct: purchased Ambit (DiscoverX) KINOMEscan; Cerep
Outline: as §1

CDKL2 = molecular target: T24, CDKL2 (Homo sapiens, UniProt Q92772)
T24 construct: purchased Ambit (DiscoverX) KINOMEscan; Cerep
Outline: as §1

ARK5 = molecular target: T25, ARK5 (Homo sapiens, UniProt O60285)
T25 construct: purchased Ambit (DiscoverX) KINOMEscan; Cerep
Outline: as §1

GSK3b = molecular target: T26, GSK3b (Homo sapiens, UniProt P49841)
T26 construct: purchased Ambit (DiscoverX) KINOMEscan; Cerep
T26 sequence (P49841 whole entry): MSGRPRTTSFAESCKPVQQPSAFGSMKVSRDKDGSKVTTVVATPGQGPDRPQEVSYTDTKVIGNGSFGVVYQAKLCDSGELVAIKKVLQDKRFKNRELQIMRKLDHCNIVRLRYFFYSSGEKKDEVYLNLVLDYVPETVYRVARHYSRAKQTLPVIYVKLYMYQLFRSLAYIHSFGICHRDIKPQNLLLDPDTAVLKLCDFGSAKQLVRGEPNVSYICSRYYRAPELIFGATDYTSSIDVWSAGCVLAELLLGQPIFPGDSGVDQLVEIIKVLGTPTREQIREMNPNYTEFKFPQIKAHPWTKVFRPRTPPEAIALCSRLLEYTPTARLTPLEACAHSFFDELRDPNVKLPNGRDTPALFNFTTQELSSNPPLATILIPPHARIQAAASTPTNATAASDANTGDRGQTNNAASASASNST
Outline: as §1

MARK2 = molecular target: T27, MARK2 (Homo sapiens, UniProt Q7KZI7)
T27 construct: purchased Ambit (DiscoverX) KINOMEscan; Cerep
Outline: as §1

ROS1 = molecular target: T28, ROS1 (Homo sapiens, UniProt P08922)
T28 construct: purchased Ambit (DiscoverX) KINOMEscan; Cerep
Outline: as §1

TLK1 = molecular target: T29, TLK1 (Homo sapiens, UniProt Q9UKI8)
T29 construct: purchased Ambit (DiscoverX) KINOMEscan; Cerep
T29 sequence (Q9UKI8 whole entry): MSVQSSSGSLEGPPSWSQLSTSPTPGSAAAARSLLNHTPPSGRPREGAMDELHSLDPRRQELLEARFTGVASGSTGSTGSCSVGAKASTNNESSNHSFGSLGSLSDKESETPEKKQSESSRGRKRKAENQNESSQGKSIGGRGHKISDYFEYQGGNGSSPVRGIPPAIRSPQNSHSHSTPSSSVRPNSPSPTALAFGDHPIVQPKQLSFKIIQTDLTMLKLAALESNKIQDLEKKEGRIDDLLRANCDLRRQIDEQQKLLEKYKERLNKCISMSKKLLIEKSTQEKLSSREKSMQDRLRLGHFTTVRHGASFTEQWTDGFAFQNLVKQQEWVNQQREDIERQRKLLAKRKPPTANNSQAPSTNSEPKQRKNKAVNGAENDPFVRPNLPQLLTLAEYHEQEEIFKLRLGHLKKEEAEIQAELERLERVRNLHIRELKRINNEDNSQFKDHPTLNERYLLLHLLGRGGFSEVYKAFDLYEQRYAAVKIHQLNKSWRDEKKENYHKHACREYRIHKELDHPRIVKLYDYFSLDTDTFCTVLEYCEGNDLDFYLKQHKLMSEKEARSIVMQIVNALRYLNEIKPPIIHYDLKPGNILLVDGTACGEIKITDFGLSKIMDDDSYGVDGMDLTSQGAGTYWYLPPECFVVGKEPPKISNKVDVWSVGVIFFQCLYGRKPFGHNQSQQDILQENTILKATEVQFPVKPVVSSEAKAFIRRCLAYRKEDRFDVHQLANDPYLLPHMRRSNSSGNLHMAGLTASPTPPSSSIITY
Outline: as §1

ERK5 = molecular target: T30, ERK5 (Homo sapiens, UniProt Q13164)
T30 construct: purchased Ambit (DiscoverX) KINOMEscan; Cerep
Outline: as §1

[1] = molecular target: T31, JAK2(JH1domain-catalytic) (Homo sapiens, UniProt O60674)
T31 construct: JAK2(JH1domain-catalytic); purchased Ambit (DiscoverX) KINOMEscan; Cerep
T31 sequence (O60674 849-1132 limits assumed): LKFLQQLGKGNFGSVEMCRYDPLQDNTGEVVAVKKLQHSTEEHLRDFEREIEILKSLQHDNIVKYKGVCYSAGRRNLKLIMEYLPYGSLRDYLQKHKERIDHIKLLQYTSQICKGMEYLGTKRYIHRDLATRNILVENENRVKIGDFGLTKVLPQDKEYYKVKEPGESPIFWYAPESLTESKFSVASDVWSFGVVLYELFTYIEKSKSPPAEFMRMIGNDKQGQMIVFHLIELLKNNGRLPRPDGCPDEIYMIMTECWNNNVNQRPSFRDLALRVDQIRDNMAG
Outline: as §1

KIT = molecular target: T32, KIT (Homo sapiens, UniProt P10721)
T32 construct: purchased Ambit (DiscoverX) KINOMEscan; Cerep
Outline: as §1

ERK8 = molecular target: T33, ERK8 (Homo sapiens, UniProt Q8TD08)
T33 construct: purchased Ambit (DiscoverX) KINOMEscan; Cerep
Outline: as §1

Measured: remaining binding at 10 µM

T1 sequence (Q99759 whole entry): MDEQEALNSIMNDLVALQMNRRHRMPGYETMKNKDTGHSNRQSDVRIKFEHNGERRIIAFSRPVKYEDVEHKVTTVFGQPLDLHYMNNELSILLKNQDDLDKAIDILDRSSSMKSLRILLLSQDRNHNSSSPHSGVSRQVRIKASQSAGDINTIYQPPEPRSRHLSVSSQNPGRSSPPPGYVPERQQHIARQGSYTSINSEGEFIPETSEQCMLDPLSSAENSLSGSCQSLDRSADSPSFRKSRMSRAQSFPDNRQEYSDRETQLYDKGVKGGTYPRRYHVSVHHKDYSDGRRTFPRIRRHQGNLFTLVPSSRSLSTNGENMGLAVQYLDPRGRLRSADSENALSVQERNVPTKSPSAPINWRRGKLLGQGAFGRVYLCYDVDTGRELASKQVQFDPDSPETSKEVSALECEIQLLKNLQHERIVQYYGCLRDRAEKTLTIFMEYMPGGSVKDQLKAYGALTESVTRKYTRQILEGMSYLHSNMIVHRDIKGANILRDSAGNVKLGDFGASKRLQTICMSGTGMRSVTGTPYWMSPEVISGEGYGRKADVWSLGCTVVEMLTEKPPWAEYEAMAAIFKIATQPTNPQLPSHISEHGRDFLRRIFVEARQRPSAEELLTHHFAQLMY

CCCCN1CCN(C(=N)c2cccc(NC(=O)Nc3ccc(S(=O)(=O)NCc4ccc(S(N)(=O)=O)cc4)cc3)c2)CC1 [SC81458, 4-(3-(3-((4-butylpiperazin-1-yl)(imino)methyl)phenyl)ureido)-N-(4-sulfamoylbenzyl) benzenesulfonamide]
80%: EGFR(G719C) | PRKG2
93%: ACVR2b
89%: FLT3(D835Y)
60%: KIT
92%: ARK5
82%: CSF1R
73%: ICK
91%: MAPKAPK5
100%: all other assays above
